Experimental data from patent US20160039802A1, “3-PYRIMIDIN-4-YL-OXAZOLIDIN-2-ONES AS INHIBITORS OF MUTANT IDH” (NOVARTIS AG, priority 2013, published 2016).

Tests used:
[1] = target: T1, Mutant IDH1 R132H (Homo sapiens, UniProt O75874, R132H); experiment: Mutant IDH1 biochemical assay: LC-MS detection of 2-HG; settings: mIDH R132H […], 5 uM NADPH, 100 uM alpha-KG, 45 minutes incubation; range where run multiple times; also: mIDH R132H 0.25 nM, 5 µM NADPH
T1 construct: His6 with PreScission site (N, cleaved yes); made in house; host or cells: E. coli Rosetta 2(DE3)
T1 sequence (O75874 whole entry R132H): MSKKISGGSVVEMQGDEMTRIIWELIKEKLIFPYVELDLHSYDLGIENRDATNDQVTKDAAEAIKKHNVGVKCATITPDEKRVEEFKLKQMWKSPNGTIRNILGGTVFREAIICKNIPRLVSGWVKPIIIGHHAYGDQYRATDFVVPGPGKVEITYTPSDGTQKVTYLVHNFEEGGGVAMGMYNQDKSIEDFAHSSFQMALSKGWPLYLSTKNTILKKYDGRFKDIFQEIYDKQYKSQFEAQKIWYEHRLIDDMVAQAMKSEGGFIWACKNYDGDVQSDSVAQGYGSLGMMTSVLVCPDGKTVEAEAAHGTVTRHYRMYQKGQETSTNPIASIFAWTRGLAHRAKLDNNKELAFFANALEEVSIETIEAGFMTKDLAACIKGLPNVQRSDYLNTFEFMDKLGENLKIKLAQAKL
From the text: Mutant IDH1 biochemical Sssay: LC-MS Detection of 2-HG.

[2] = target: T2, IDH1 (R132H) mutant (Homo sapiens, UniProt O75874, R132H); experiment: Fluorescence biochemical assay (NADPH oxidation); settings: mIDH R132H 10 nM, 10 μM NADPH, 100 μM α-KG; range where run multiple times
T2 construct: His6 with PreScission site (N, cleaved yes); made in house; host or cells: E. coli Rosetta 2(DE3)
T2 sequence (O75874 whole entry R132H): as above

## CNC1CCN(Cc2ccc([C@H](C)Nc3nccc(N4C(=O)OC[C@]4(C)C4CC4)n3)cc2F)CC1 [Example 40, (S)-4-cyclopropyl-3-(2-(((S)-1-(3-fluoro-4-((4-(methylamino)piperidin-1-yl)methyl)phenyl)ethyl)amino)pyrimidin-4-yl)-4-methyloxazolidin-2-one]
[1]
  IC50: 117 nM
[2]
  IC50: 105 to 111 nM

## C[C@H](Nc1nc(Cl)cc(N2C(=O)OC[C@@H]2C2CC2)n1)c1nc(-c2ccc(Cl)cc2)no1 [Example 3, (S)-3-(6-chloro-2-((S)-1-(3-(4-chlorophenyl)-1,2,4-oxadiazol-5-yl)ethylamino)pyrimidin-4-yl)-4-cyclopropyloxazolidin-2-one]
[1]
  IC50: < 22.9 nM
[2]
  IC50: 26.9 nM

## C[C@H](Nc1nc(Cl)cc(N2C(=O)OC[C@@H]2C2CC2)n1)c1ccc(-c2cnn(C)c2)cc1F [Example 19, (S)-3-(6-chloro-2-(((S)-1-(2-fluoro-4-(1-methyl-1H-pyrazol-4-yl)phenyl)ethyl)amino)pyrimidin-4-yl)-4-cyclopropyloxazolidin-2-one]
[1]
  IC50: 57.2 nM
[2]
  IC50: 44.3 nM

## CC(Nc1nccc(N2C(=O)OC[C@@]2(C)C2CC2)n1)c1nc(-c2ccc(Cl)c(OC(F)(F)F)c2)no1 (single isomer, unassigned) [Example 65]
[1]
  IC50: > 5000 nM
[2]
  IC50: > 25000 nM

## Cc1cc(N2C(=O)OC[C@@H]2C2CC2)nc(N[C@@H](C)c2nc(-c3ccc(Cl)cc3)no2)n1 [Example 8, (S)-3-(2-(((S)-1-(3-(4-chlorophenyl)-1,2,4-oxadiazol-5-yl)ethyl)amino)-6-methylpyrimidin-4-yl)-4-cyclopropyloxazolidin-2-one]
[1]
  IC50: 47.1 nM
[2]
  IC50: 71.3 nM

## C[C@H](Nc1nccc(N2C(=O)OCC2(C)C2CC2)n1)c1ccc(F)cc1 (single isomer, unassigned) [Example 46]
[1]
  IC50: 791 nM
[2]
  IC50: 793 to 1210 nM

## C[C@H](Nc1nccc(N2C(=O)OCC2(C)C2CC2)n1)c1ccc(F)cc1 (single isomer, unassigned) [Example 45]
[1]
  IC50: 189 nM
[2]
  IC50: 235 to 253 nM

## C[C@H](Nc1nc(Cl)cc(N2C(=O)OC[C@@H]2C2CC2)n1)c1cn(-c2ccc(F)cc2)cn1 [Example 27, (S)-3-(6-chloro-2-(((S)-1-(1-(4-fluorophenyl)-1H-imidazol-4-yl)ethyl)amino)pyrimidin-4-yl)-4-cyclopropyloxazolidin-2-one]
[1]
  IC50: 20 nM
[2]
  IC50: 7.27 nM
